Experimental data as given in paper PMC8667898, “Topo II inhibition and DNA intercalation by new phthalazine-based derivatives as potent anticancer agents: design, synthesis, anti-proliferative, docking, and in vivo studies” (Journal of Enzyme Inhibition and Medicinal Chemistry, 2021).

System: MCF-7 cells (human breast adenocarcinoma)
Assay: MTT anti-proliferative assay, MCF-7
Format: cell-based
Details: Homo sapiens, MCF7, MTT, mean ± SD of three separate experiments; read-out: In vitro Cytotoxicity IC50 MCF-7
Protocol: Anti-proliferative activities of the target compounds were assessed via the standard MTT method[38–40] against three cancer cell lines, namely, hepatocellular carcinoma (HepG-2), colorectal carcinoma (HCT-116), and human breast adenocarcinoma (MCF-7). Doxorubicin was used in this test as a positive control.
Anti-proliferative activity of the synthesised compounds was estimated using the MTT assay protocol[8]^,[38–40] as shown in Supplementary data.
4.2.1. In vitro anti-proliferative activity against MCF-7, HepG-2 and HCT-116 The cells were cultured in RPMI-1640 medium supplemented with 10% fetal bovine serum (FBS), penicillin (100 unit /mL) and streptomycin sulphate (100µg/mL) at 37 °C in a 5% CO2 incubator.
Then, cells were dropped in 96-well plates at a density of 3-8 × 10^3 cells/well and incubated for two days in a 5% CO2 incubator at 37 °C. Then, the cells were treated with the synthesized compounds and the cell cultures were continued incubated for 24 h. However, Different concentrations of the compound under test (0.0, 5.0, 12.5, 25.0 and 50 mg/ml) were added to the cell monolayer. Then, (3-[4,5-dimethylthiazol-2-yl]- 2,5-diphenyltetrazolium bromide) MTT solution (20 µl, 5mg/mL) was added to each well and incubated for additional 4 h. The formed purple crystals of MTT-formazan were dissolved in 100 µl DMSO each well; the absorbance of each well was measured at 570 nm using a plate reader (EXL 800, USA). All of the compounds were tested three times. The relative cell viability in percentage was calculated. The results for IC50 values of the active compounds are […]
The data represented the mean of three independent experiments in triplicate and were expressed as means ± SD. […]
of the cells could survive. […]

Work on `CCCc1nnc2c3ccccc3c(NN=Cc3ccc([N+](=O)[O-])cc3)nn12` [Compound 9d, 6-[2–(4-Nitrobenzylidene)hydrazineyl]-3-propyl-[1,2, 4]triazolo[3,4-a]phthalazine] yielded an IC50 of 4.95 ± 0.1 µM.
